The target in one data set is cereblon (CRBN) (Homo sapiens, UniProt Q96SW2). Kind of data set: AlphaScreen assay, cereblon (CRBN). The class given is binding. The text has this: An AlphaLISA® assay for EP300 catalytic function (FIG. 3B) and an AlphaScreen™ assay for EP300 bromodomain and cereblon (CRBN) using biotinylated tagged small molecules as a probe for EP300 bromodomain and CRBN, respectively, were developed (FIG. 3C).
AlphaScreen™ assay was used to determine the binding of inventive degrader compound toward both CRBN and HAT domain.

A further data set relates to Kelly cells. Kind of data set: ATPlite cell growth inhibition assay, Kelly cell lines treated 72 hours. As to conditions: for Kelly NB cell growth inhibition: 72 hours, ATPlite, normalized to DMSO; for IC50: ND: not detected. It is filed as cell-based. The procedure:
Compounds CPD 1 to CPD 22 were tested via ATPlite™ assay (ATPlite™ 1000 assay kit, PerkinElmer®, USA) using standard protocol. […] The signal is normalized to DMSO treated cells.

The target of a further data set is T1, HAT (EP300) domain (Homo sapiens, UniProt Q09472).
T1 sequence (Q09472 1287-1663 limits assumed): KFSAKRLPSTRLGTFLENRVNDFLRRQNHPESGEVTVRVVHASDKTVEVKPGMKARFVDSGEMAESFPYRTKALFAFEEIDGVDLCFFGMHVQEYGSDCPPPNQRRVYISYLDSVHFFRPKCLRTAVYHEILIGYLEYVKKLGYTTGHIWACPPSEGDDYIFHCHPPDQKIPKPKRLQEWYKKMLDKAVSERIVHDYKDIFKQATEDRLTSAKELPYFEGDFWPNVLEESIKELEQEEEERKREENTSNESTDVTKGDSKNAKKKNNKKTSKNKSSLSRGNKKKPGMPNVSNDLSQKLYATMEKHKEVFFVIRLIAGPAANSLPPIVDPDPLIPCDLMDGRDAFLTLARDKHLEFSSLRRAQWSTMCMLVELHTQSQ
Kind of data set: AlphaScreen assay, HAT (EP300) domain. The class given is binding. The method, then: The AlphaScreen™ assay was performed in 384-well plate format using white AlphaPlate (PerkinElmer®, USA), and transfer of pre-diluted compound (100 nL) was performed using a Janus Workstation (PerkinElmer®, USA). All subsequent steps were carried out in assay buffer (50 mM 4-(2-hydroxyethyl)-1-piperazineethanesulfonic acid (HEPES), pH 7.5, 0.1% (wt/vol) bovine serum albumin (BSA) and 0.01% (vol/vol) Tween-20). In brief, 10 μL of assay buffer containing enzyme (2 nM Final) was pre-incubated for 15 min with dilutions of compound. The enzyme reaction was initiated by the addition of substrate (5 μL) consisting of acetyl Co-A 2-OG (5 μM Final).
FAS final concentration was 10 μM. Histone tail-GGK Biotin final concentration was 100 nM Final. The enzyme reaction was allowed to proceed for 30 minutes and was stopped by the addition of 5 μL of assay buffer containing ethylenediaminetetraacetic acid (EDTA) (40 mM) and NaCl (1200 mM). The final concentration of dimethyl sulfoxide (DMSO) was 1%. Streptavidin donor beads (0.08 mg/mL) and protein-A-conjugated acceptor beads (0.08 mg/mL) were preincubated for 1 h with antibody to methyl mark (300 ng/mL Final), and the presence of histone H3 product acetylation mark was detected using the preincubated AlphaScreen™ beads (5 μL). Detection was allowed to proceed for 2 hours at rt, and the assay plates were read on the Envision™ 2104 plate reader. Data were normalized to the (no-enzyme) control, and the IC50 values were determined via nonlinear regression curve fit using GraphPad Prism (FIG. 4E-FIG. 4H).
AlphaScreen™ assay was used to determine the binding of inventive degrader compound toward both CRBN and HAT domain. The experimental protocol is the same as in Example 26.

The next data set relates to Kelly NB cells. Kind of data set: EP300/CBP inhibitors in Kelly NB cells (colony formation, CellTiter-Glo growth assays). It is filed as cell-based. The method, then:
The effects of several EP300/CBP inhibitors, C646, CBP30 and A485 were tested in Kelly NB cells. (FIG. 2B).

For data set [1] the following is noted: in mice; cited from earlier work.

Each structure is given as a SMILES string. Entries after “also recorded” stand apart in the source; their conditions may differ.

Sequence of cereblon (CRBN) (Q96SW2 whole entry, the tested form may be a part): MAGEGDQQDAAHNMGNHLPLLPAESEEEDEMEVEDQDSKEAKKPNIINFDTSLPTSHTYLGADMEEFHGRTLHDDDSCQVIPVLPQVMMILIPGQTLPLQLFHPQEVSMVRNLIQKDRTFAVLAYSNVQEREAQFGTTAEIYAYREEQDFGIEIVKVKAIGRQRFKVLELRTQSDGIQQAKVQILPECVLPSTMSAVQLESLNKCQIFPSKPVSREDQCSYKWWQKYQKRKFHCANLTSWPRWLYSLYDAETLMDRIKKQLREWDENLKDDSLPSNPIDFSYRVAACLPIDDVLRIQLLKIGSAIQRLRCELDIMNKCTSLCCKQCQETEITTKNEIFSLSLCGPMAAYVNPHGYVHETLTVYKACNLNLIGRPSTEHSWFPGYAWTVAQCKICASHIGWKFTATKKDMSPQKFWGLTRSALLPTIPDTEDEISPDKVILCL

As for `O=C1CCC(N2C(=O)c3ccccc3C2=O)C(=O)N1` (stereo not shown) [thalidomide, reference compound], the “binding to cereblon (CRBN)” value on cereblon (CRBN) is given as “bind”.

On to `C[C@H](N(Cc1ccc(F)cc1)C(=O)CN1C(=O)O[C@@]2(CCc3cc(NC(=O)CCc4ccc(NC(=O)CCCCCCCCCCCNc5ccc6c(c5)C(=O)N(C5CCC(=O)NC5=O)C6=O)cc4)ccc32)C1=O)C(F)(F)F` (stereo partly drawn) [CPD 13, 12-((2-(2,6-dioxopiperidin-3-yl)-1,3-dioxoisoindolin-5-yl)amino)-N-(4-(3-(((R)-3′-(2-((4-fluorobenzyl)((S)-1,1,1-trifluoropropan-2-yl)amino)-2-oxoethyl)-2′,4′-dioxo-2,3-dihydrospiro[indene-1,5′-oxazolidin]-5-yl)amino)-3-oxopropyl)phenyl)dodecanamide], for which, in the data set on Kelly cells, the “Kelly NB cell growth inhibition” value is given as “Cell growth inhibition was observed” and the midpoint of inhibition, the IC50, lay at 1.39 µM.

As to `CC(=O)Nc1ccc2c(c1)CC[C@@]21OC(=O)N(CC(=O)N(Cc2ccc(F)cc2)[C@H](C)CNC(=O)CCCCCCCCCCCNc2ccc3c(c2)C(=O)N(C2CCC(=O)NC2=O)C3=O)C1=O` (stereo partly drawn) [CPD 15, N—((R)-2-(2-((R)-5-acetamido-2′,4′-dioxo-2,3-dihydrospiro[indene-1,5′-oxazolidin]-3′-yl)-N-(4-fluorobenzyl)acetamido)propyl)-12-((2-(2,6-dioxopiperidin-3-yl)-1,3-dioxoisoindolin-5-yl)amino)dodecanamide], in the data set with Kelly cells, the “Kelly NB cell growth inhibition” value is “Cell growth inhibition was observed” and the IC50 came to 1.76 µM.

On to `CNC(=O)Nc1ccc2c(c1)CC[C@@]21OC(=O)N(CC(=O)N(Cc2ccc(F)cc2)[C@@H](C)C(F)(F)F)C1=O` [A485, N-[(4-fluorophenyl)methyl]-2-{(1R)-5-[(methylcarbamoyl)amino]-2′,4′-dioxo-2,3-dihydro-3′H-spiro[indene-1,5′-[1,3]oxazolidin]-3′-yl}-N-[(2S)-1,1,1-trifluoropropan-2-yl]acetamide], for which the “binding to HAT (EP300) domain” value at HAT (EP300) domain is listed as “bind”. Also, on cereblon (CRBN), the “binding to cereblon (CRBN)” value is “no binding was observed”. Also, the apoptosis entry in the data set on Kelly NB cells (Kelly NB cells, increasing doses) is recorded as “induction of apoptosis”. For the same molecule, the growth inhibition entry in the data set on Kelly NB cells (Kelly NB cells, increasing doses, CellTiter-Glo) is “growth inhibition”. Moreover, the “growth changes in cellular models of NB compared with C646 and CBP30” value in the data set with Kelly NB cells (at submicromolar levels) is given as “superior to other known EP300/CBP inhibitors”. Moreover, the half life in data set [1] was 42 min.

`CC(=O)Nc1ccc2c(c1)CC[C@@]21OC(=O)N(CC(=O)N(Cc2ccc(F)cc2)[C@@H](C)CNC(=O)CCCCCCCCCCCNc2ccc3c(c2)C(=O)N(C2CCC(=O)NC2=O)C3=O)C1=O` (stereo partly drawn) [CPD 16, N—((S)-2-(2-((R)-5-acetamido-2′,4′-dioxo-2,3-dihydrospiro[indene-1,5′-oxazolidin]-3′-yl)-N-(4-fluorobenzyl)acetamido)propyl)-12-((2-(2,6-dioxopiperidin-3-yl)-1,3-dioxoisoindolin-5-yl)amino)dodecanamide]: in the data set with Kelly cells, the “Kelly NB cell growth inhibition” value is “outperformed positive control A485; also recorded: Cell growth inhibition was observed” and the IC50 is 0.27 µM.

As for `Nc1cccc2c1C(=O)N(C1CCC(=O)NC1=O)C2=O` (stereo not shown) [pomalidomide, reference compound], on cereblon (CRBN), the “binding to cereblon (CRBN)” value was “bind”.

Take `C[C@H](N(Cc1ccc(F)cc1)C(=O)CN1C(=O)O[C@@]2(CCc3cc(NC(=O)CCCNC(=O)CCCCCCCCCCCNc4ccc5c(c4)C(=O)N(C4CCC(=O)NC4=O)C5=O)ccc32)C1=O)C(F)(F)F` (stereo partly shown): in the data set with Kelly cells, the “Kelly NB cell growth inhibition” value is given as “outperformed positive control A485; also recorded: Cell growth inhibition was observed” and the IC50 worked out at 0.31 µM.

As for `CC(N(Cc1ccc(F)cc1)C(=O)CN1C(=O)O[C@@]2(CCc3cc(NC(=O)CCCNC(=O)CCCCCNc4ccc5c(c4)C(=O)N(C4CCC(=O)NC4=O)C5=O)ccc32)C1=O)C(F)(F)F` (stereo in doubt) [CPD 10, 6-((2-(2,6-dioxopiperidin-3-yl)-1,3-dioxoisoindolin-5-yl)amino)-N-(4-(((R)-3′-(2-((4-fluorobenzyl)((R)-1,1,1-trifluoropropan-2-yl)amino)-2-oxoethyl)-2′,4′-dioxo-2,3-dihydrospiro[indene-1,5′-oxazolidin]-5-yl)amino)-4-oxobutyl)hexanamide], in the data set on Kelly cells, the “Kelly NB cell growth inhibition” value is recorded as “Cell growth inhibition was observed” and the IC50 came to 1.15 µM.

With `C[C@H](N(Cc1ccc(F)cc1)C(=O)CN1C(=O)O[C@@]2(CCc3cc(NC(=O)CCOCCOCCOCCOCCOCCOCCNc4cccc5c4C(=O)N(C4CCC(=O)NC4=O)C5=O)ccc32)C1=O)C(F)(F)F` (stereo partly drawn) [CPD 2, 1-((2-(2,6-dioxopiperidin-3-yl)-1,3-dioxoisoindolin-4-yl)amino)-N—((R)-3′-(2-((4-fluorobenzyl)((S)-1,1,1-trifluoropropan-2-yl)amino)-2-oxoethyl)-2′,4′-dioxo-2,3-dihydrospiro[indene-1,5′-oxazolidin]-5-yl)-3,6,9,12,15,18-hexaoxahenicosane-21-amide], in the data set on Kelly cells, the “Kelly NB cell growth inhibition” value was “did not inhibit cellular growth” and the IC50 turned out to be 3.42 µM. Besides, the “binding to HAT (EP300) domain” value at HAT (EP300) domain was “bind”. The “binding to cereblon (CRBN)” value on cereblon (CRBN) was “bind”.

The record behind these values is patent publication US12428412B2 (DANA-FARBER CANCER INSTITUTE, INC., priority 2018, dated 2025).
